From article PMC6321168, “Comparative Study on Excretive Characterization of Main Components in Herb Pair Notoginseng-Safflower and Single Herbs by LC–MS/MS” (Pharmaceutics, 2018)

Test: Urinary excretion study in rats after oral NS, SF or CNS (LC–MS/MS)
Format: in vivo
Conditions: for concentration at 2 h / concentration at 4 h / concentration at 8 h / concentration at 12 h / concentration at 24 h / concentration at 36 h / concentration at 48 h / concentration at 72 h / concentration at 96 h / concentration at 120 h / concentration at 6 h: male, Sprague Dawley, rat, urine, oral; for Accumulative excretion amount / Accumulative excretion percentage / Excretion amount: rat urine
Experimental: The animal room was set at constant temperature of 20 ± 2 °C with humidity of 50 ± 20% and 12/12 h light/dark cycle.
Eighteen male rats were fasted for 12 h before starting the experiment. The rats were divided into three groups at random (n = 6) and received NS (60 mg/kg), SF (50 mg/kg), and NS (60 mg/kg) + SF (50 mg/kg), respectively, by oral gavage. The rats were placed in separate metabolic cages. The urine samples were collected at 0–2, 2–4, 4–6, 6–8, 8–12, 12–24, 24–36, 36–48, 48–72, 72–96, and 96–120 h. The feces samples were collected at 0–4, 4–8, 8–12, 12–24, 24–36, 36–48, 48–72, 72–96, and 96–120 h. The urine volume was recorded and the dry feces were measured for each collection period. Samples were stored at −80 °C until analysis.
An aliquot of 200 μL urine sample was mixed with 10 μL of IS and evaporated to dryness with a ZLS-2 vacuum centrifugal concentrator (Herexi Co., Ltd., Changsha, Hunan, China). The residue was reconstituted in 100 μL of 50% methanol vortexed for 2 min and centrifuged at 12,000 rpm for 15 min. Finally, a 1 μL aliquot was injected for LC–MS analysis.
Ultra fast liquid chromatography (UFLC) analysis was performed using a Shimadzu UFLC system (DGU-20A3R Degasser; LC-20AD pump; SIL-20AXR Autosampler; CTO-20AC Column Oven) (Nakagyo-Ku, Koyoto, Japan). […] Because of the different endogenous substances in the urine and feces samples, different elution gradients were used to alleviate the matrix effects for the analytes.
The mass spectrometric detection was performed on an ABSciex 4500 Qtrap mass spectrometer (ABSciex, Foster City, CA, USA) equipped with a negative electrospray ionization (ESI) interface using multiple reaction monitoring (MRM). The MS parameters were optimized under the selected ion monitoring conditions as follows: curtain gas, 35 psi; ionspray voltage, 4500 V; turbo gas temperature, 450 °C; GS1, 45 psi; GS2, 45 psi. All data were acquired and analyzed by Analyst software (Versions 1.6.2) from ABSciex.
The accumulative excretion percentage was calculated for each analyte as follows. Excretion at time (t) = [concentration of the analyte (ng/mL) at t] × total urine (or feces) volume (mL) at t. The cumulative excretion up to time t (mg) was expressed as a percent (%) cumulative excretion by dividing by the total amount of the analyte ingested (mg): % Cumulative Excretion = 100 × (Σt excretiont) total ingested.

A concentration at 2 h (60 mg/kg, oral NS 60 mg/kg, 2 h) of 289 ± 689 ng/mL, a concentration at 4 h (60 mg/kg, oral NS 60 mg/kg, 4 h) of 91 ± 119 ng/mL and a concentration at 8 h (60 mg/kg, oral NS 60 mg/kg, 8 h) of 40 ± 26 ng/mL were found for `CC(C)=CCC[C@](C)(O[C@@H]1O[C@H](CO)[C@@H](O)[C@H](O)[C@H]1O)[C@H]1CC[C@]2(C)[C@@H]1[C@H](O)C[C@@H]1[C@@]3(C)CC[C@H](O)C(C)(C)[C@@H]3[C@@H](O[C@@H]3O[C@H](CO)[C@@H](O)[C@H](O)[C@H]3O[C@@H]3O[C@@H](C)[C@H](O)[C@@H](O)[C@H]3O)C[C@]12C` [ginsenoside Re] in this work. The concentration at 12 h (60 mg/kg, oral NS 60 mg/kg, 12 h) was 33 ± 24 ng/mL, the concentration at 24 h (60 mg/kg, oral NS 60 mg/kg, 24 h) was 17 ± 34 ng/mL and the concentration at 36 h (60 mg/kg, oral NS 60 mg/kg, 36 h) was 15 ± 23 ng/mL. For the same compound, the concentration at 48 h (60 mg/kg, oral NS 60 mg/kg, 48 h) was 13 ± 24 ng/mL, the concentration at 72 h (60 mg/kg, oral NS 60 mg/kg, 72 h) was 17 ± 37 ng/mL and the concentration at 96 h (60 mg/kg, oral NS 60 mg/kg, 96 h) was 7 ± 13 ng/mL. It also gave a concentration at 120 h (60 mg/kg, oral NS 60 mg/kg, 120 h) of 4 ± 8 ng/mL, a concentration at 2 h (oral CNS 110 mg/kg, 2 h) of 86 ± 88 ng/mL and a concentration at 4 h (oral CNS 110 mg/kg, 4 h) of 70 ± 89 ng/mL. For the same compound, the concentration at 6 h (oral CNS 110 mg/kg, 6 h) was 39 ± 27 ng/mL, the concentration at 8 h (oral CNS 110 mg/kg, 8 h) was 41 ± 35 ng/mL and the concentration at 12 h (oral CNS 110 mg/kg, 12 h) was 35 ± 41 ng/mL. For the same compound, the concentration at 24 h (oral CNS 110 mg/kg, 24 h) was 369 ± 963 ng/mL, the concentration at 36 h (oral CNS 110 mg/kg, 36 h) was 24 ± 38 ng/mL and the concentration at 48 h (oral CNS 110 mg/kg, 48 h) was 6 ± 7 ng/mL. It also gave a concentration at 72 h (oral CNS 110 mg/kg, 72 h) of 5 ± 7 ng/mL, a concentration at 96 h (oral CNS 110 mg/kg, 96 h) of 3 ± 5 ng/mL and a concentration at 120 h (oral CNS 110 mg/kg, 120 h) of 4 ± 8 ng/mL. It also gave a concentration at 6 h (oral NS 60 mg/kg, 6 h) of 32 ± 30 ng/mL, an Accumulative excretion amount (oral CNS 110 mg/kg, 2 h) of 0.133 ± 0.062 µg and an Accumulative excretion percentage (oral CNS 110 mg/kg, 2 h) of 0.028±0.013%. For the same compound, the Accumulative excretion amount (oral CNS 110 mg/kg, 4 h) was 0.193 ± 0.131 µg, the Accumulative excretion percentage (oral CNS 110 mg/kg, 4 h) was 0.041±0.028% and the Excretion amount (oral CNS 110 mg/kg, 4 h) was 0.100 ± 0.090 µg. For the same compound, the Accumulative excretion amount (oral CNS 110 mg/kg, 6 h) was 0.231 ± 0.118 µg, the Accumulative excretion percentage (oral CNS 110 mg/kg, 6 h) was 0.049± 0.025% and the Excretion amount (oral CNS 110 mg/kg, 6 h) was 0.064 ± 0.030 µg. For the same compound, the Accumulative excretion amount (oral CNS 110 mg/kg, 8 h) was 0.289 ± 0.121 µg, the Accumulative excretion percentage (oral CNS 110 mg/kg, 8 h) was 0.061±0.026% and the Excretion amount (oral CNS 110 mg/kg, 8 h) was 0.072 ± 0.033 µg. For the same compound, the Accumulative excretion amount (oral CNS 110 mg/kg, 12 h) was 0.324 ± 0.110 µg, the Accumulative excretion percentage (oral CNS 110 mg/kg, 12 h) was 0.069±0.023% and the Excretion amount (oral CNS 110 mg/kg, 12 h) was 0.035 ± 0.015 µg. For the same compound, the Accumulative excretion amount (oral CNS 110 mg/kg, 24 h) was 0.381 ± 0.153 µg, the Accumulative excretion percentage (oral CNS 110 mg/kg, 24 h) was 0.081±0.032% and the Excretion amount (oral CNS 110 mg/kg, 24 h) was 0.058 ± 0.054 µg. It also gave an Accumulative excretion amount (oral CNS 110 mg/kg, 36 h) of 0.411 ± 0.177 µg, an Accumulative excretion percentage (oral CNS 110 mg/kg, 36 h) of 0.087±0.037% and an Excretion amount (oral CNS 110 mg/kg, 36 h) of 0.030 ± 0.037 µg. It also gave an Accumulative excretion amount (oral CNS 110 mg/kg, 48 h) of 0.447 ± 0.206 µg, an Accumulative excretion percentage (oral CNS 110 mg/kg, 48 h) of 0.095±0.044% and an Excretion amount (oral CNS 110 mg/kg, 48 h) of 0.03 ± 0.038 µg. For the same compound, the Accumulative excretion amount (oral CNS 110 mg/kg, 72 h) was 0.460 ± 0.207 µg, the Accumulative excretion percentage (oral CNS 110 mg/kg, 72 h) was 0.097±0.044% and the Excretion amount (oral CNS 110 mg/kg, 72 h) was 0.013 ± 0.017 µg. For the same compound, the Accumulative excretion amount (oral CNS 110 mg/kg, 96 h) was 0.468 ± 0.217 µg, the Accumulative excretion percentage (oral CNS 110 mg/kg, 96 h) was 0.099±0.046% and the Excretion amount (oral CNS 110 mg/kg, 96 h) was 0.008 ± 0.012 µg. For the same compound, the Accumulative excretion amount (oral CNS 110 mg/kg, 120 h) was 0.472 ± 0.219 µg, the Accumulative excretion percentage (oral CNS 110 mg/kg, 120 h) was 0.100±0.046% and the Excretion amount (oral CNS 110 mg/kg, 120 h) was 0.004 ± 0.005 µg. For the same compound, the Accumulative excretion amount (oral NS 60 mg/kg, 2 h) was 0.304 ± 0.161 µg, the Accumulative excretion percentage (oral NS 60 mg/kg, 2 h) was 0.064±0.030% and the Excretion amount (oral NS 60 mg/kg, 2 h) was 0.304 ± 0.161 µg. It also gave an Accumulative excretion amount (oral NS 60 mg/kg, 4 h) of 0.390 ± 0.199 µg, an Accumulative excretion percentage (oral NS 60 mg/kg, 4 h) of 0.072±0.037% and an Excretion amount (oral NS 60 mg/kg, 4 h) of 0.129 ± 0.051 µg. For the same compound, the Accumulative excretion amount (oral NS 60 mg/kg, 6 h) was 0.509 ± 0.225 µg, the Accumulative excretion percentage (oral NS 60 mg/kg, 6 h) was 0.096±0.042% and the Excretion amount (oral NS 60 mg/kg, 6 h) was 0.143 ± 0.125 µg. For the same compound, the Accumulative excretion amount (oral NS 60 mg/kg, 8 h) was 0.625 ± 0.321 µg, the Accumulative excretion percentage (oral NS 60 mg/kg, 8 h) was 0.127±0.059% and the Excretion amount (oral NS 60 mg/kg, 8 h) was 0.173 ± 0.121 µg. For the same compound, the Accumulative excretion amount (oral NS 60 mg/kg, 12 h) was 0.721 ± 0.406 µg, the Accumulative excretion percentage (oral NS 60 mg/kg, 12 h) was 0.138±0.075% and the Excretion amount (oral NS 60 mg/kg, 12 h) was 0.096 ± 0.087 µg. It also gave an Accumulative excretion amount (oral NS 60 mg/kg, 24 h) of 0.745 ± 0.403 µg, an Accumulative excretion percentage (oral NS 60 mg/kg, 24 h) of 0.149±0.074% and an Excretion amount (oral NS 60 mg/kg, 24 h) of 0.024 ± 0.015 µg. The Accumulative excretion amount (oral NS 60 mg/kg, 36 h) was 0.782 ± 0.377 µg, the Accumulative excretion percentage (oral NS 60 mg/kg, 36 h) was 0.141±0.070% and the Excretion amount (oral NS 60 mg/kg, 36 h) was 0.044 ± 0.046 µg. It also gave an Accumulative excretion amount (oral NS 60 mg/kg, 48 h) of 0.802 ± 0.380 µg, an Accumulative excretion percentage (oral NS 60 mg/kg, 48 h) of 0.152±0.070% and an Excretion amount (oral NS 60 mg/kg, 48 h) of 0.020 ± 0.022 µg. It also gave an Accumulative excretion amount (oral NS 60 mg/kg, 72 h) of 0.809 ± 0.391 µg, an Accumulative excretion percentage (oral NS 60 mg/kg, 72 h) of 0.156±0.072% and an Excretion amount (oral NS 60 mg/kg, 72 h) of 0.007 ± 0.017 µg. It also gave an Accumulative excretion amount (oral NS 60 mg/kg, 96 h) of 0.814 ± 0.399 µg, an Accumulative excretion percentage (oral NS 60 mg/kg, 96 h) of 0.154±0.074% and an Excretion amount (oral NS 60 mg/kg, 96 h) of 0.005 ± 0.010 µg. For the same compound, the Accumulative excretion amount (oral NS 60 mg/kg, 120 h) was 0.819 ± 0.408 µg, the Accumulative excretion percentage (oral NS 60 mg/kg, 120 h) was 0.154±0.075% and the Excretion amount (oral NS 60 mg/kg, 120 h) was 0.004 ± 0.010 µg.
